Laboratory results as given in paper PMC11243149, “Assessing the Effects of Thiazole-Carboxamide Derivatives on the Biophysical Properties of AMPA Receptor Complexes as a Potential Neuroprotective Agent” (Molecules, 2024).
Read-outs that look alike come from different tables or passages of the source.

Molecular target: T1, GluA2 (Homo sapiens, UniProt P42262)
T1 construct: expressed in transfected cells; host or cells: HEK293T
Assay: Whole-cell patch-clamp recordings of homomeric GluA2 AMPAR in transfected HEK293T cells
Format: cell-based
Details: for Amplitude (glutamate plus TC compound): 10 mM glutamate + TC compound (12 µM optimal concentration), HEK293T, -60 mV, pH 7.4, 22 °C, mean ± SEM; for Amplitude (glutamate plus TC compound) / Amplitude, applying glutamate alone after TC compound: n = 10; for Amplitude, applying glutamate alone after TC compound: 10 mM glutamate alone after 20 s wash following the TC compound; for A/AI: ratio of current with glutamate alone (A) to inhibited current after TC compound (AI); for t deact: weighted tau of deactivation, 10 mM glutamate for 1 ms, glutamate alone 2.3±0.1; for t deact / t des: with TC compound; for t des: weighted tau of desensitization, 10 mM glutamate 500 ms, glutamate alone 2.6±0.1
Method: The effect of five TC compounds on whole-cell currents of four AMPAR subunits (GluA1, GluA1/2, GluA2, and GluA2/3) was investigated using transfected HEK293T cells. Each compound was applied separately to each subunit, with experiments conducted on 8–10 cells per condition to ensure reproducibility. […] At a glutamate concentration of 10 mM and a 500 ms protocol, approximately 95% of AMPAR channels were open. The A/AI ratio was calculated to compare the results, where A represents normalized current readings and AI indicates the inhibited current following TC compound exposure. […] Following closely, TC-1 inhibited the tested subunits by 5-fold.
The IC50 values were examined using GraphPad Prism software 9.5.0.730 (x64) (Table S6), which confirmed these findings. The IC50 values of TC substances were calculated by standardizing the peak current amplitudes using data obtained from 8–10 cells. Following a 500 ms exposure to the compounds, the cells were rinsed with glutamate for 20 s. Next, a solution containing just glutamate at a concentration of 10 mM was administered, and the resulting immediate induced electrical current was measured and documented (Figure 3).
In addition, an evaluation was conducted on the deactivation rates (τw deact) of all the examined chemicals to investigate their impact on the kinetics of deactivation. The chemicals were assessed for their effect on the deactivation kinetics of AMPAR subunits by briefly administering 10 mM glutamate for 1 ms to begin currents. This experimental setup allowed for the observation of τw deact under controlled conditions. […] TC-5 induced an approximately 2-fold increase in τw deact across all four tested subunits. […] These findings highlight the differential impact of TC compounds on deactivation kinetics across AMPAR subunits, shedding light on their potential neuroprotective mechanisms.
The flip isoform was uniformly employed across all AMPAR subunits in this study. These subunits were subcloned into the pRK vector and expressed in Human Embryonic kidney cells sourced (Sigma, München, Germany). HEK293T cells were grown in Dulbecco Modified Eagle Medium (DMEM) (Sigma, München, Germany) containing 10% FBS (fetal bovine serum), 0.1 mg/mL streptomycin, and 1 mM sodium pyruvate (Biological Industries; Beit-Haemek, Israel). HEK293T cells were incubated at 37 °C and 5% CO2 was supplemented to the medium. It was subcultured twice a week until cells reached pass #20. The transfection reagent used was either jetPRIME (Polyplus: New York, NY, USA) or Lipofectamine 2000 (Invitrogen; San Diego, CA, USA). Cells were kept for 36 h. after transfection in 12-well plates. Then, they were replated on coverslips coated with Laminin (1 mg/mL; Sigma, Germany) for electrophysiology recordings. Cells were then seeded in Petri dishes in DMEM supplemented with 10% fetal calf serum and antibiotics and maintained in a humidified incubator at 37 °C and 5% CO2. Highly fluorescent cells were identified and selected for recording post-transfection.
HEK293T cells were recorded for 36–48 h, at a temperature of 22 °C, with a membrane potential of −60 mV. HEK293T cells were recorded 36–48 h after transfection using IPA (Integrated Patch Amplifier) via the […], at a temperature of 22 °C, with a membrane potential of −60 mV. SutterPatch Software v. 1.1.1 (Sutter Instruments, Novato, CA, USA) was used to digitize membrane currents for a short period. The sampling frequency was set to 10 kHz, and the low-pass filter was set to 2 kHz. Borosilicate glass was used to fabricate the patch electrodes with a resistance of 2–4 MΩ. The extracellular solution contained the following (values are in mM): 150 NaCl, 2.8 KCl, 0.5 MgCl2, 2 CaCl2, and 10 HEPES, adjusted to pH 7.4 with NaOH. The pipette solution contained the following (values are in mM): 110 CsF, 30 CsCl, 4 NaCl, 0.5 CaCl2, 10 […], and 10 HEPES, adjusted to pH 7.2 with CsOH. […]

[1] = Table S6, read-out: Log IC50 (converted)
[2] = Table S6, peak current amplitudes, 8-10 cells, GraphPad Prism fit, read-out: IC50

T1 sequence (P42262 25-883 isoform P42262-2 limits assumed, species assumed): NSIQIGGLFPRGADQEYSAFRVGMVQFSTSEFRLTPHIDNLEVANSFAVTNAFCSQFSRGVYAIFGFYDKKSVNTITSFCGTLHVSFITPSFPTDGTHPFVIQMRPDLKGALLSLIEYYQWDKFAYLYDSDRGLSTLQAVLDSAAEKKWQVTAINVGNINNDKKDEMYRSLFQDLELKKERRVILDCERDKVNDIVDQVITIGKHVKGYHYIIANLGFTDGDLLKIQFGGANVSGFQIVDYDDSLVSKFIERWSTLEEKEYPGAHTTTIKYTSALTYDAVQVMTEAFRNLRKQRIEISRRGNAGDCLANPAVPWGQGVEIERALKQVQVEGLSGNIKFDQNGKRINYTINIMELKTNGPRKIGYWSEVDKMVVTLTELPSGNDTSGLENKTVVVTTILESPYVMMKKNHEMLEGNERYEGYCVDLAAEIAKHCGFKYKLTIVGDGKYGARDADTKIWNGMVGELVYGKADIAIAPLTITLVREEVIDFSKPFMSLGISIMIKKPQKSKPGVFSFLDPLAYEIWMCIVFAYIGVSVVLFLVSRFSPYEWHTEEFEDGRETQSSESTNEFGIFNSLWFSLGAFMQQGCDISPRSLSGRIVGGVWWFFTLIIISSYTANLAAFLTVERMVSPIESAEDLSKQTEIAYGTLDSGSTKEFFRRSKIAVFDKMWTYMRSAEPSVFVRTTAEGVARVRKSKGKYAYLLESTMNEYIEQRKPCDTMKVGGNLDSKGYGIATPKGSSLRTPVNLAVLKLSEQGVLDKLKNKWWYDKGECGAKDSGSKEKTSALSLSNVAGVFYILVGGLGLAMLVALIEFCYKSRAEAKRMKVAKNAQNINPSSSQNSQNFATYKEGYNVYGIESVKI

Amplitude (glutamate plus TC compound) [pA]	Amplitude, applying glutamate alone after TC compound [pA]	IC50 [1] [µM]	A/AI	IC50 (read-out: IC50) [µM]	t deact [ms]	IC50 [2] [µM]	Compound	t des [ms]
233±20	1137±97	3.31	5.03±0.04	3.3	5.9 ± 0.2	–	COc1ccc(-c2nc(C(=O)Nc3ccc(OC)c(OC)c3)cs2)cc1 [TC-1]	1.1 ± 0.1
363±37	1078±112	5.5	3.17±0.02	–	3.5 ± 0.3	5.5	COc1ccc(-c2nc(C(=O)Nc3ccccc3)cs2)cc1 [TC-3]	1.7 ± 0.1
393±43	1110±101	5.62	2.91±0.07	–	3.4 ± 0.2	5.6	COc1ccc(-c2nc(C(=O)Nc3ccc(C(C)(C)C)cc3)cs2)cc1 [TC-4]	1.8 ± 0.1
